Active and inactive are the calls of the source. No rule for the calls is given here.
Tested on: rodent lifetime carcinogenesis bioassay, tumor incidence TD50
Assay: carcinogenic potency in animals, long-term in vivo studies, CPDB compilation (AID 1745844)

## C[C@@H]1CCC[C@H](C)N1CCCC(O)(c1ccccc1)c1ccccn1 (stereo partly drawn)
mouse, strain B6C3F1, females, in feed, site: all sites, lesion: lymphoma, dosed 104 weeks, study length 104 weeks
  TD50: 94.6 mg/kg/day (inactive)
mouse, strain B6C3F1, females, in feed, site: any site (literature study), lesion: several types, types named in the paper, dosed 104 weeks, study length 104 weeks
  carcinogen call: negative (inactive)
mouse, strain B6C3F1, females, in feed, site: liver, lesion: hepatocellular adenoma, dosed 104 weeks, study length 104 weeks
  TD50: 1560 mg/kg/day (inactive)
mouse, strain B6C3F1, females, in feed, site: liver, lesion: hepatocellular carcinoma, dosed 104 weeks, study length 104 weeks
  TD50: 978 mg/kg/day (inactive)
mouse, strain B6C3F1, females, in feed, site: lung, lesion: adenoma, dosed 104 weeks, study length 104 weeks
  TD50: 1980 mg/kg/day (inactive)
mouse, strain B6C3F1, females, in feed, site: lung, lesion: carcinoma, dosed 104 weeks, study length 104 weeks
  carcinogen call: negative (inactive)
mouse, strain B6C3F1, males, in feed, site: any site (literature study), lesion: several types, types named in the paper, dosed 104 weeks, study length 104 weeks
  carcinogen call: negative (inactive)
mouse, strain B6C3F1, males, in feed, site: liver, lesion: hepatocellular adenoma, dosed 104 weeks, study length 104 weeks
  carcinogen call: negative (inactive)
mouse, strain B6C3F1, males, in feed, site: liver, lesion: hepatocellular carcinoma, dosed 104 weeks, study length 104 weeks
  carcinogen call: negative (inactive)
mouse, strain B6C3F1, males, in feed, site: lung, lesion: adenoma, dosed 104 weeks, study length 104 weeks
  TD50: 947 mg/kg/day (inactive)
mouse, strain B6C3F1, males, in feed, site: lung, lesion: carcinoma, dosed 104 weeks, study length 104 weeks
  TD50: 4040 mg/kg/day (inactive)
rat, strain Wistar, females, in feed, site: any site (literature study), lesion: several types, types named in the paper, dosed 104 weeks, study length 104 weeks
  TD50: 440 mg/kg/day (inactive)
rat, strain Wistar, females, in feed, site: liver, lesion: one or several types, types not named, dosed 104 weeks, study length 104 weeks
  carcinogen call: negative (inactive)
rat, strain Wistar, females, in feed, site: pituitary gland, lesion: adenoma, dosed 104 weeks, study length 104 weeks
  TD50: 15.9 mg/kg/day (inactive)
rat, strain Wistar, males, in feed, site: adrenal gland, lesion: cortical adenoma, dosed 104 weeks, study length 104 weeks
  TD50: 104 mg/kg/day (inactive)
rat, strain Wistar, males, in feed, site: any site (literature study), lesion: several types, types named in the paper, dosed 104 weeks, study length 104 weeks
  carcinogen call: negative (inactive)
rat, strain Wistar, males, in feed, site: liver, lesion: one or several types, types not named, dosed 104 weeks, study length 104 weeks
  carcinogen call: negative (inactive)

## N#[N+]c1cc(CCN)ccc1[O-]
rat, strain F344/DuCrj, males, in drinking water, site: oral cavity, lesion: squamous-cell carcinoma, dosed 116 weeks, study length 116 weeks
  TD50: 37.6 mg/kg/day

## O=P(OC(CCl)CCl)(OC(CCl)CCl)OC(CCl)CCl
rat, strain Charles River CD (Sprague-Dawley), females, in feed, site: adrenal gland, lesion: cortical adenoma, dosed 104 weeks, study length 104 weeks
  TD50: 192 mg/kg/day
rat, strain Charles River CD (Sprague-Dawley), females, in feed, site: kidney, lesion: cortical adenoma, dosed 104 weeks, study length 104 weeks
  TD50: 68.6 mg/kg/day
rat, strain Charles River CD (Sprague-Dawley), females, in feed, site: liver, lesion: hepatocellular adenoma, dosed 104 weeks, study length 104 weeks
  TD50: 324 mg/kg/day
rat, strain Charles River CD (Sprague-Dawley), females, in feed, site: liver, lesion: hepatocellular carcinoma, dosed 104 weeks, study length 104 weeks
  TD50: 721 mg/kg/day
rat, strain Charles River CD (Sprague-Dawley), females, in feed, site: liver, lesion: several types, types named in the paper, dosed 104 weeks, study length 104 weeks
  TD50: 206 mg/kg/day
rat, strain Charles River CD (Sprague-Dawley), males, in feed, site: kidney, lesion: cortical adenoma, dosed 104 weeks, study length 104 weeks
  TD50: 53.1 mg/kg/day
rat, strain Charles River CD (Sprague-Dawley), males, in feed, site: liver, lesion: hepatocellular adenoma, dosed 104 weeks, study length 104 weeks
  TD50: 252 mg/kg/day
rat, strain Charles River CD (Sprague-Dawley), males, in feed, site: liver, lesion: hepatocellular carcinoma, dosed 104 weeks, study length 104 weeks
  TD50: 390 mg/kg/day
rat, strain Charles River CD (Sprague-Dawley), males, in feed, site: liver, lesion: several types, types named in the paper, dosed 104 weeks, study length 104 weeks
  TD50: 144 mg/kg/day
rat, strain Charles River CD (Sprague-Dawley), males, in feed, site: testis, lesion: interstitial-cell tumor, dosed 104 weeks, study length 104 weeks
  TD50: 35 mg/kg/day

## C/C(=C(\CCOC(=O)c1ccccc1)SC(=O)c1ccccc1)N(C=O)Cc1cnc(C)nc1N
rat, strain Sprague-Dawley, females, in feed, site: any site (literature study), lesion: malignant tumor, dosed 105 weeks, study length 105 weeks
  TD50: 14300 mg/kg/day (inactive)
rat, strain Sprague-Dawley, females, in feed, site: any site (literature study), lesion: several types, types named in the paper, dosed 105 weeks, study length 105 weeks
  carcinogen call: negative (inactive)
rat, strain Sprague-Dawley, females, in feed, site: liver, lesion: hemangiosarcoma anaplastic, dosed 105 weeks, study length 105 weeks
  carcinogen call: negative (inactive)
rat, strain Sprague-Dawley, males, in feed, site: any site (literature study), lesion: malignant tumor, dosed 105 weeks, study length 105 weeks
  TD50: 2340 mg/kg/day (inactive)
rat, strain Sprague-Dawley, males, in feed, site: any site (literature study), lesion: several types, types named in the paper, dosed 105 weeks, study length 105 weeks
  carcinogen call: negative (inactive)
rat, strain Sprague-Dawley, males, in feed, site: liver, lesion: liver-cell tumor, benign, dosed 105 weeks, study length 105 weeks
  TD50: 6980 mg/kg/day (inactive)
rat, strain Sprague-Dawley, males, in feed, site: liver, lesion: liver-cell tumor, malignant, dosed 105 weeks, study length 105 weeks
  TD50: 6770 mg/kg/day (inactive)

## Cc1cccn2c1nc1ccc(N)nc12
mouse, strain CDF1, females, in feed, site: blood vessels, lesion: hemangioendothelial sarcoma, dosed 67 weeks, study length 67 weeks
  TD50: 13.8 mg/kg/day
mouse, strain CDF1, females, in feed, site: blood vessels, lesion: several types, types named in the paper, dosed 67 weeks, study length 67 weeks
  TD50: 10.9 mg/kg/day
mouse, strain CDF1, females, in feed, site: liver, lesion: hepatocellular adenoma, dosed 67 weeks, study length 67 weeks
  TD50: 44.1 mg/kg/day
mouse, strain CDF1, females, in feed, site: liver, lesion: hepatocellular carcinoma, dosed 67 weeks, study length 67 weeks
  TD50: 18.5 mg/kg/day
mouse, strain CDF1, females, in feed, site: liver, lesion: several types, types named in the paper, dosed 67 weeks, study length 67 weeks
  TD50: 5.08 mg/kg/day
mouse, strain CDF1, females, in feed, site: lung, lesion: adenoma, dosed 67 weeks, study length 67 weeks
  TD50: 166 mg/kg/day
mouse, strain CDF1, females, in feed, site: lung, lesion: several types, types named in the paper, dosed 67 weeks, study length 67 weeks
  TD50: 308 mg/kg/day
mouse, strain CDF1, males, in feed, site: blood vessels, lesion: hemangioendothelial sarcoma, dosed 57 weeks, study length 57 weeks
  TD50: 7.81 mg/kg/day
mouse, strain CDF1, males, in feed, site: blood vessels, lesion: hemangioendothelioma, dosed 57 weeks, study length 57 weeks
  TD50: 98.7 mg/kg/day
mouse, strain CDF1, males, in feed, site: blood vessels, lesion: several types, types named in the paper, dosed 57 weeks, study length 57 weeks
  TD50: 5.77 mg/kg/day
mouse, strain CDF1, males, in feed, site: liver, lesion: hepatocellular adenoma, dosed 57 weeks, study length 57 weeks
  TD50: 98.7 mg/kg/day
mouse, strain CDF1, males, in feed, site: lung, lesion: adenoma, dosed 57 weeks, study length 57 weeks
  TD50: 1000 mg/kg/day
rat, strain F344/DuCrj, females, in feed, site: Zymbal's gland, lesion: squamous-cell carcinoma, dosed 67 weeks, study length 67 weeks
  TD50: 12.7 mg/kg/day
rat, strain F344/DuCrj, females, in feed, site: brain, lesion: astrocytoma, dosed 67 weeks, study length 67 weeks
  TD50: 95.9 mg/kg/day
rat, strain F344/DuCrj, females, in feed, site: clitoral gland, lesion: one or several types, types not named, dosed 67 weeks, study length 67 weeks
  TD50: 56.1 mg/kg/day
rat, strain F344/DuCrj, females, in feed, site: colon, lesion: adenocarcinoma, dosed 67 weeks, study length 67 weeks
  TD50: 95.9 mg/kg/day
rat, strain F344/DuCrj, females, in feed, site: colon, lesion: adenoma, dosed 67 weeks, study length 67 weeks
  TD50: 71 mg/kg/day
rat, strain F344/DuCrj, females, in feed, site: colon, lesion: several types, types named in the paper, dosed 67 weeks, study length 67 weeks
  TD50: 39 mg/kg/day
rat, strain F344/DuCrj, females, in feed, site: liver, lesion: several types, types named in the paper, dosed 67 weeks, study length 67 weeks
  TD50: 8.39 mg/kg/day
rat, strain F344/DuCrj, females, in feed, site: small intestine, lesion: adenocarcinoma, dosed 67 weeks, study length 67 weeks
  TD50: 56.1 mg/kg/day
rat, strain F344/DuCrj, females, in feed, site: small intestine, lesion: adenoma, dosed 67 weeks, study length 67 weeks
  TD50: 146 mg/kg/day
rat, strain F344/DuCrj, females, in feed, site: small intestine, lesion: mucinous carcinoma, dosed 67 weeks, study length 67 weeks
  TD50: 71 mg/kg/day
rat, strain F344/DuCrj, females, in feed, site: small intestine, lesion: several types, types named in the paper, dosed 67 weeks, study length 67 weeks
  TD50: 26.1 mg/kg/day
rat, strain F344/DuCrj, males, in feed, site: Zymbal's gland, lesion: squamous-cell carcinoma, dosed 67 weeks, study length 67 weeks
  TD50: 10.2 mg/kg/day
rat, strain F344/DuCrj, males, in feed, site: colon, lesion: adenocarcinoma, dosed 67 weeks, study length 67 weeks
  TD50: 16.9 mg/kg/day
rat, strain F344/DuCrj, males, in feed, site: colon, lesion: adenoma, dosed 67 weeks, study length 67 weeks
  TD50: 15.4 mg/kg/day
rat, strain F344/DuCrj, males, in feed, site: colon, lesion: several types, types named in the paper, dosed 67 weeks, study length 67 weeks
  TD50: 9.45 mg/kg/day
rat, strain F344/DuCrj, males, in feed, site: liver, lesion: several types, types named in the paper, dosed 67 weeks, study length 67 weeks
  TD50: 3.25 mg/kg/day
rat, strain F344/DuCrj, males, in feed, site: small intestine, lesion: adenocarcinoma, dosed 67 weeks, study length 67 weeks
  TD50: 6.71 mg/kg/day
rat, strain F344/DuCrj, males, in feed, site: small intestine, lesion: adenoma, dosed 67 weeks, study length 67 weeks
  TD50: 8.21 mg/kg/day
rat, strain F344/DuCrj, males, in feed, site: small intestine, lesion: mucinous carcinoma, dosed 67 weeks, study length 67 weeks
  TD50: 236 mg/kg/day
rat, strain F344/DuCrj, males, in feed, site: small intestine, lesion: several types, types named in the paper, dosed 67 weeks, study length 67 weeks
  TD50: 5.89 mg/kg/day

## CC1CN(N=O)CC(C)N1C(=O)c1ccccc1 (stereo not drawn)
rat, strain Fischer 344, females, in drinking water, site: any site (literature study), lesion: several types, types named in the paper, dosed 50 weeks, study length 125 weeks
  carcinogen call: positive
rat, strain Fischer 344, females, in drinking water, site: forestomach, lesion: basal-cell carcinoma, dosed 50 weeks, study length 125 weeks
  TD50: 26.4 mg/kg/day
rat, strain Fischer 344, females, in drinking water, site: forestomach, lesion: papilloma, dosed 50 weeks, study length 125 weeks
  TD50: 9.66 mg/kg/day
rat, strain Fischer 344, females, in drinking water, site: liver, lesion: one or several types, types not named, dosed 50 weeks, study length 125 weeks
  TD50: 9.1 mg/kg/day

## CCC(C)=NO
mouse, strain Charles River CD1, females, inhaled, site: liver, lesion: hepatocellular adenoma, dosed 78 weeks, study length 78 weeks
  TD50: 2440 mg/kg/day
mouse, strain Charles River CD1, females, inhaled, site: lung, lesion: adenoma, dosed 78 weeks, study length 78 weeks
  TD50: 5880 mg/kg/day
mouse, strain Charles River CD1, males, inhaled, site: liver, lesion: hepatocellular adenoma, dosed 78 weeks, study length 78 weeks
  TD50: 1460 mg/kg/day
mouse, strain Charles River CD1, males, inhaled, site: liver, lesion: hepatocellular carcinoma, dosed 78 weeks, study length 78 weeks
  TD50: 810 mg/kg/day
mouse, strain Charles River CD1, males, inhaled, site: liver, lesion: several types, types named in the paper, dosed 78 weeks, study length 78 weeks
  TD50: 534 mg/kg/day
mouse, strain Charles River CD1, males, inhaled, site: lung, lesion: adenoma, dosed 78 weeks, study length 78 weeks
  TD50: 1100 mg/kg/day
rat, strain Fischer 344, females, inhaled, site: liver, lesion: hepatocellular adenoma, dosed 113 weeks, study length 113 weeks
  TD50: 804 mg/kg/day
rat, strain Fischer 344, males, inhaled, site: liver, lesion: hepatocellular adenoma, dosed 113 weeks, study length 113 weeks
  TD50: 118 mg/kg/day
rat, strain Fischer 344, males, inhaled, site: liver, lesion: hepatocellular carcinoma, dosed 113 weeks, study length 113 weeks
  TD50: 242 mg/kg/day
rat, strain Fischer 344, males, inhaled, site: liver, lesion: several types, types named in the paper, dosed 113 weeks, study length 113 weeks
  TD50: 74.5 mg/kg/day
rat, strain Fischer 344, males, inhaled, site: mammary gland, lesion: fibroadenoma, dosed 113 weeks, study length 113 weeks
  TD50: 346 mg/kg/day
rat, strain Fischer 344, males, inhaled, site: skin, lesion: fibroma, dosed 113 weeks, study length 113 weeks
  TD50: 84.8 mg/kg/day
